Measurements from ChEMBL document CHEMBL3758124, “Synthesis and biological evaluation of new securinine analogues as potential anticancer agents” (Eur J Med Chem, 2016).

Tests used:
[1] = Cytotoxicity against human HCT116 cells assessed as growth inhibition at 20 uM after 72 hrs by ATPlite assay relative to control; type: functional; details: HCT-116, 72 h, read-out: GI
[2] = Cytotoxicity against human HCT116 cells assessed as growth inhibition at 10 uM after 72 hrs by ATPlite assay relative to control; type: functional; details: HCT-116, 72 h, read-out: GI
[3] = Cytotoxicity against human HCT116 cells assessed as growth inhibition at 1 uM after 72 hrs by ATPlite assay relative to control; type: functional; details: HCT-116, 72 h, read-out: GI
[4] = test system: A549; experiment: Cytotoxicity against human A549 cells assessed as growth inhibition after 72 hrs by ATPlite assay; type: functional, cell-based; details: A549, 72 h
[5] = Cytotoxicity against human HL60 cells assessed as growth inhibition after 72 hrs by ATPlite assay; type: functional, cell-based; details: HL-60, 72 h
[6] = Cytotoxicity against human HCT116 cells assessed as growth inhibition after 72 hrs by ATPlite assay; type: functional, cell-based; details: HCT-116, 72 h
[7] = test system: A-375; experiment: Cytotoxicity against human A375 cells assessed as growth inhibition after 72 hrs by ATPlite assay; type: functional, cell-based; details: A-375, 72 h
[8] = test system: Plasma; experiment: Stability in rat plasma at 5 uM after 120 mins by LC-MS analysis; type: ADME, cell-free; details: 2 h
[9] = test system: Plasma; experiment: Stability in mouse plasma at 5 uM after 120 mins by LC-MS analysis; type: ADME, cell-free; details: 2 h
[10] = test system: Plasma; experiment: Stability in human plasma at 5 uM after 120 mins by LC-MS analysis; type: ADME, cell-free; details: 2 h
[11] = test system: MCF7; experiment: Cytotoxicity against human MCF7 cells assessed as growth inhibition by CCK8 assay; type: functional, cell-based
[12] = test system: A549; experiment: Cytotoxicity against human A549 cells after 72 hrs by Coulter counter analysis; type: functional, cell-based; details: A549, 72 h

SMILES	inhibition of growth at 20 µM [1] [%]	inhibition of growth at 10 µM [2] [%]	inhibition of growth at 1 µM [3] [%]	other results
CC(=O)c1cccc(C2=CC3=CC(=O)O[C@@]34C[C@@H]2N2CCCC[C@@H]24)c1	65	35.3	3.6	–
COC(=O)c1cccc(C2=CC3=CC(=O)O[C@@]34C[C@@H]2N2CCCC[C@@H]24)c1	82.8	60.2	4	–
Cc1cccc(C2=CC3=CC(=O)O[C@@]34C[C@@H]2N2CCCC[C@@H]24)c1	92.5	93.3	75.5	IC50 [4]: 140 nM; IC50 [5]: 130 nM; IC50 [6]: 280 nM; IC50 [7]: 70 nM
Cc1ccc(C2=CC3=CC(=O)O[C@@]34C[C@@H]2N2CCCC[C@@H]24)cc1	82.9	73	3.4	–
O=C1C=C2C=C(c3cccc(C(F)(F)F)c3)[C@@H]3C[C@@]2(O1)[C@H]1CCCCN31	83.1	81.9	21	–
O=C1C=C2C=C(c3cccc(Cl)c3)[C@@H]3C[C@@]2(O1)[C@H]1CCCCN31	93	93.4	76.6	IC50 [4]: 110 nM; IC50 [5]: 140 nM; IC50 [6]: 230 nM; IC50 [7]: 80 nM
O=C1C=C2C=C(c3ccc4c(c3)OCO4)[C@@H]3C[C@@]2(O1)[C@H]1CCCCN31	90	86.9	-1.7	–
COc1cccc(C2=CC3=CC(=O)O[C@@]34C[C@@H]2N2CCCC[C@@H]24)c1	92.8	92.7	76.3	IC50 [4]: 120 nM; IC50 [5]: 140 nM; IC50 [6]: 260 nM; IC50 [7]: 80 nM; Stability [8]: Stable; Stability [9]: Stable; Stability [10]: Stable
CC(=O)c1ccc(C2=CC3=CC(=O)O[C@@]34C[C@@H]2N2CCCC[C@@H]24)cc1	27.3	11.7	2.4	–
O=C1C=C2C=C(c3ccc(Cl)c(Cl)c3)[C@@H]3C[C@@]2(O1)[C@H]1CCCCN31	80.5	61	12.3	–
COc1ccc(C2=CC3=CC(=O)O[C@@]34C[C@@H]2N2CCCC[C@@H]24)cc1	24.8	9.4	11.7	–
CN(C)c1ccc(C2=CC3=CC(=O)O[C@@]34C[C@@H]2N2CCCC[C@@H]24)cc1	47.6	21.5	3.7	–
CN(C)c1cccc(C2=CC3=CC(=O)O[C@@]34C[C@@H]2N2CCCC[C@@H]24)c1	75.7	52.7	10.2	–
O=C1C=C2C=C(c3ccccc3)[C@@H]3C[C@@]2(O1)[C@H]1CCCCN31	87.4	86.7	6.8	–
O=C1C=C2C=C(c3ccc4c(c3)Cc3ccccc3-4)[C@@H]3C[C@@]2(O1)[C@H]1CCCCN31	75.1	53.6	20.9	–
O=C1C=C2C=C(c3ccc4ccccc4c3)[C@@H]3C[C@@]2(O1)[C@H]1CCCCN31	51.1	30.9	10.8	–
O=C1C=C2C=C(c3cccc(F)c3)[C@@H]3C[C@@]2(O1)[C@H]1CCCCN31	84.1	80.3	32.1	–
COC(=O)c1ccc(C2=CC3=CC(=O)O[C@@]34C[C@@H]2N2CCCC[C@@H]24)cc1	24.4	8.3	7.2	–
O=C1C=C2C=C(c3ccc(F)cc3)[C@@H]3C[C@@]2(O1)[C@H]1CCCCN31	52.5	30.7	-2.6	–
COc1cc([C@@H]2c3cc4c(cc3[C@@H](O[C@@H]3O[C@@H]5CO[C@@H](C)O[C@H]5[C@H](O)[C@H]3O)[C@H]3COC(=O)[C@H]23)OCO4)cc(OC)c1O [ETOPOSIDE]	–	–	–	IC50 [4]: 590 nM; IC50 [5]: 860 nM; IC50 [6]: > 10000 nM; IC50 [7]: 240 nM
O=C1C=C2C=C[C@@H]3C[C@@]2(O1)[C@H]1CCCCN31 [SECURININE]	90.7	50.6	7.6	IC50 [4]: > 10000 nM; IC50 [5]: > 10000 nM; IC50 [6]: > 10000 nM; IC50 [7]: 6100 nM; Stability [8]: Stable; Stability [9]: Stable; Stability [10]: Stable; IC50 [11]: 25000 nM; IC50 [12]: 25000 nM
